Drawing on ChEMBL document CHEMBL3244013, “Central nervous system activity of a novel class of annelated 1,4-benzodiazepines, aminomethylene-2,4-dihydro-1H-imidazo[1,2-a][1,4]benzodiazepin-1-ones” (J Med Chem, 1977), this text covers ED50 for ten molecules.

In data set [1] the test system is Mus musculus. Kind of data set: Anticonvulsant activity in po dosed CD-1 mouse assessed as protection against strychnine-induced convulsion after 30 mins. It is filed as functional. Particulars: CD-1, po, 0.5 h.
For data set [2], the system named is Mus musculus. Kind of data set: Acute toxicity in po dosed CD-1 mouse assessed as mortality after 24 hrs. It is filed as organism-based. To be noted: in vivo.
Data set [3] relates to Mus musculus. The experiment in a line: Induction of muscle relaxation in po dosed CD-1 mouse after 30 mins by rotary drum test. It is filed as functional. Particulars: CD-1, po, 0.5 h.
Data set [4] deals with Mus musculus. The experiment in a line: Anticonvulsant activity in po dosed CD-1 mouse assessed as protection against maximal electroshock-induced convulsion. The data set is classed as functional. Particulars: CD-1, po. (In general: The maximal electroshock test induces tonic seizures with an electrical stimulus.)
For data set [5], the system named is Mus musculus. The experiment in a line: Potentiation of chlorprothixene-induced sedative effect in po dosed CD-1 mouse assessed as loss of righting reflex. It is filed as functional. To be noted: CD-1, po.
In data set [6] the test system is Mus musculus. The experiment in a line: Anticonvulsant activity in po dosed CD-1 mouse assessed as protection against pentylenetetrazole-induced convulsion. The data set is classed as functional. Particulars: CD-1, po.
Data set [7] relates to Mus musculus. Kind of data set: Potentiation of hexobarbital-induced sedative effect in po dosed CD-1 mouse assessed as loss of righting reflex after 30 secs. It is filed as functional. To be noted: CD-1, po.
For data set [8], the system named is Mus musculus. The experiment in a line: Antianxiety activity in po dosed CD-1 mouse assessed as inhibition of foot shock-induced aggression after 30 mins relative to control. The data set is classed as functional. To be noted: CD-1, po, 0.5 h.

As usually defined, the ED50 is the dose that gives a 50% effect, or the effect in half of the subjects. Consider `CCCN1CCN(/C=C2\N=C3CN=C(c4ccccc4)c4cc(Cl)ccc4N3C2=O)CC1`, for which the ED50 was 6.4 mg/kg in the data set with Mus musculus [1]; > 1000 mg/kg in the data set on Mus musculus [2]; 1.1 mg/kg in the data set on Mus musculus [3]; 2.7 mg/kg in the data set with Mus musculus [4]; 3.2 mg/kg with Mus musculus [5]; 1 mg/kg in the data set with Mus musculus [6]. The ED50 in the data set on Mus musculus [7] turned out to be 3.6 mg/kg; in the data set on Mus musculus [8], 1.3 mg/kg.
Take `CCCCN/C=C1\N=C2CN=C(c3ccccc3)c3cc(Cl)ccc3N2C1=O`: the ED50 is 17 mg/kg in the data set with Mus musculus [1]; > 1000 mg/kg in the data set with Mus musculus [2]; 24 mg/kg in the data set on Mus musculus [3]; 12.5 mg/kg in the data set on Mus musculus [4]; 1.8 mg/kg with Mus musculus [5]; 1.15 mg/kg with Mus musculus [6]. The results for the ED50 with Mus musculus [7] and with Mus musculus [8] were 0.66 mg/kg and 3.35 mg/kg, respectively.
Consider `CN1CCN(/C=C2\N=C3CN=C(c4ccccc4Cl)c4cc(Cl)ccc4N3C2=O)CC1`, for which the ED50 was 1.8 mg/kg in the data set on Mus musculus [1]; > 1000 mg/kg in the data set with Mus musculus [2]; 0.78 mg/kg in the data set with Mus musculus [3]; 2.1 mg/kg in the data set with Mus musculus [4]; 1.6 mg/kg in the data set on Mus musculus [5]; 0.165 mg/kg in the data set with Mus musculus [6]. The ED50 was 0.074 mg/kg with Mus musculus [7] and 0.2 mg/kg in the data set on Mus musculus [8].
As for `CC(C)N1CCN(/C=C2\N=C3CN=C(c4ccccc4)c4cc(Cl)ccc4N3C2=O)CC1`, the ED50 was 5.8 mg/kg in the data set with Mus musculus [1]; > 1000 mg/kg with Mus musculus [2]; 12 mg/kg in the data set with Mus musculus [3]; 7 mg/kg with Mus musculus [4]; 6.4 mg/kg in the data set on Mus musculus [5]; 1.25 mg/kg in the data set with Mus musculus [6]. Further, the results for the ED50 with Mus musculus [7] and with Mus musculus [8] were 6.6 mg/kg and 2.1 mg/kg, respectively.
Regarding `CCN1CCN(/C=C2\N=C3CN=C(c4ccccc4)c4cc(Cl)ccc4N3C2=O)CC1`, the ED50 with Mus musculus [1] is 5.5 mg/kg; in the data set on Mus musculus [2], > 1000 mg/kg; in the data set on Mus musculus [3], 1.6 mg/kg; in the data set on Mus musculus [4], 2.2 mg/kg; in the data set with Mus musculus [5] it was 5 mg/kg; in the data set on Mus musculus [6] it was 0.48 mg/kg. The ED50 with Mus musculus [7] is 1.1 mg/kg; in the data set with Mus musculus [8], 0.94 mg/kg.
On to `CN1CCN(/C=C2\N=C3CN=C(c4ccccc4F)c4cc(Cl)ccc4N3C2=O)CC1`, for which the ED50 is 1.25 mg/kg in the data set on Mus musculus [1]; > 1000 mg/kg in the data set with Mus musculus [2]; 2.6 mg/kg with Mus musculus [3]; 0.27 mg/kg in the data set with Mus musculus [4]; 1.35 mg/kg with Mus musculus [5]; 0.115 mg/kg in the data set with Mus musculus [6]. For the same molecule, the ED50 was found to be 0.21 mg/kg in the data set on Mus musculus [7] and 0.34 mg/kg in the data set on Mus musculus [8].
On to `CCCN/C=C1\NC2CN=C(c3ccccc3)c3cc(Cl)ccc3N2C1=O` (stereo not given), for which the ED50 in the data set with Mus musculus [1] is > 50 mg/kg; with Mus musculus [2], > 1000 mg/kg; in the data set with Mus musculus [3] it was 2.8 mg/kg; with Mus musculus [4], 4 mg/kg; in the data set on Mus musculus [5] it was 2.6 mg/kg; in the data set with Mus musculus [6] it was 1.55 mg/kg. Further, the ED50 is 3.9 mg/kg in the data set on Mus musculus [7] and 0.92 mg/kg in the data set on Mus musculus [8].
Take `CCN1CCN(/C=C2\N=C3CN=C(c4ccccc4Cl)c4cc(Cl)ccc4N3C2=O)CC1`: the ED50 in the data set with Mus musculus [1] is 2.3 mg/kg; in the data set on Mus musculus [2] it was > 1000 mg/kg; in the data set with Mus musculus [3], 0.56 mg/kg; in the data set on Mus musculus [4], 2.2 mg/kg; with Mus musculus [5] it was 1.2 mg/kg; in the data set on Mus musculus [6], 0.087 mg/kg. Further, the ED50 with Mus musculus [7] was found to be 2.5 mg/kg; in the data set on Mus musculus [8] it was 0.5 mg/kg.
Consider `CC(C)(C)N/C=C1\N=C2CN=C(c3ccccc3)c3cc(Cl)ccc3N2C1=O`, for which the ED50 in the data set with Mus musculus [1] is > 50 mg/kg; in the data set with Mus musculus [2], > 1000 mg/kg; in the data set with Mus musculus [3], 14.5 mg/kg; with Mus musculus [4], 19 mg/kg; with Mus musculus [5], 14 mg/kg; in the data set on Mus musculus [6] it was 3.25 mg/kg. The ED50 came out at 5 mg/kg with Mus musculus [7] and 1.1 mg/kg in the data set with Mus musculus [8].
On to `CCN/C=C1\N=C2CN=C(c3ccccc3)c3cc(Cl)ccc3N2C1=O`, for which the ED50 in the data set with Mus musculus [1] is > 50 mg/kg; with Mus musculus [2] it was > 1000 mg/kg; in the data set on Mus musculus [3] it was 1.8 mg/kg; with Mus musculus [4], 10 mg/kg; with Mus musculus [5], > 10 mg/kg; with Mus musculus [6] it was 4 mg/kg. Besides, the ED50 in the data set on Mus musculus [7] came out at 7.2 mg/kg; in the data set with Mus musculus [8], 1.45 mg/kg.
